According to US10626107B2, “Crystal form, salt type of substituted 2-hydro-pyrazole derivative and preparation method therefor” (CHIA TAI TIANQING PHARMACEUTICAL GROUP CO., LTD., priority 2016, dated 2020):
pIC50: −log10 of the molar value.

Columns and labels:
CDK6/cyclin D1 = CDK6/cyclin D1 (Homo sapiens (Human), UniProt Q00534); assay: CDK6/cyclin D1 enzymatic activity (Lance Ultra); assay type: biochemical; conditions: 180 minutes
Experimental: The components of the buffer included 50 mM hydroxyethylpiperazine ethanesulfonic acid solution (pH 7.5), 1 mM ethylenediaminetetraacetic acid, 10 mM magnesium chloride, 0.01% Brij-35, and 2 mM dithiothreitol.

[1] = test system: human breast cancer MCF-7 subcutaneous xenograft tumor; assay type: in vivo; conditions: 18.75 mg/kg PO QD × 3W
Source text: Cell line-derived xenograft (CDX) BALB/c nude mice that were female, 6- to 8-week old, weighed 20 g, and subcutaneously implanted with human tumor cell line derived from MCF-7 breast cancer patients were used. A total of 150 mice were needed, which were purchased from Beijing Vital River Laboratory Animal Technology Co., Ltd.
BALB/c nude mice that were female, 6- to 8-week old, and weighed approximately 20 g were used. The mice were maintained in separate ventilated cages (10 mice per cage) in a special pathogen-free environment. All the cages, bedding and water were disinfected prior to use. All the animals were free to access a standard certified commercial laboratory diet. A total of 150 mice were purchased from Beijing Vital River Laboratory Animal Technology Co., Ltd. for research. Each mouse was implanted subcutaneously with an estrogen tablets (0.18 mg/tablet, 60-day sustained release) in the left back. After 3 days, each mouse was implanted with tumor cells (10×10^6 in 0.2 mL of phosphate buffer) subcutaneously in the right back for tumor growth. Administration was started when the average tumor volume reached about 150 to 200 mm^3. The test compounds were orally administered daily, and the administration dosages were as shown in the above table. The tumor volumes were measured twice a week using a two-dimensional caliper. The volumes were expressed in cubic millimeters and calculated by the following formula: V=0.5 a×b^2, wherein a and b were the long diameter and short diameter of a tumor, respectively. The anti-tumor efficacy was determined by dividing the average increase of the tumor volumes of the animals treated with a compound by the average increase of the tumor volumes of the animals without being treated with the compound.

[2] = test system: human lung cancer LU-01-0393 subcutaneous xenograft tumor; assay: In vivo drug efficacy study (II): human lung cancer LU-01-0393 subcutaneous xenograft tumor model; design: species or system BALB/c nude mice; conditions: 45 mg/kg PO QD × 3W
Source text: Cell line-derived xenograft (CDX) BALB/c nude mice that were female, 6- to 8-week old, weighed 17 to 20 g, and subcutaneously implanted with human tumor cell line derived from LU-01-0393 lung cancer patient were used. A total of 72 mice were needed and were purchased from Shanghai Xipuer-Bikai Experimental Animal Co., Ltd. Human lung cancer LU-01-0393 tumor (i.e., non-small cell lung cancer) was originally derived from a clinical sample of a surgical resection. It was defined as passage PO after being inoculated to nude mice, and the tumor of passage PO was re-inoculated to nude mice and was then defined as passage P1, and so forth. Passage was performed in nude mice. LU-01-0393-FP5 was obtained from the transplantation after the recovery of P4. This study would use the tumor tissue of passage FP6.
BALB/c nude mice that were female, 6- to 8-week old, and weighed approximately 17 to 20 g were used. The mice were maintained in separate ventilated cages in a special pathogen-free environment. All the cages, bedding and water were disinfected prior to use. All the animals were free to access a standard certified commercial laboratory diet. A total of 72 mice purchased from Shanghai Xipuer-Bikai Experimental Animal Co., Ltd. were used for the study. The LU-01-0393 FP6 tumor tissue was cut to 20 to 30 mm^3 and inoculated to the right back of each mouse to wait for the tumor growth. When the average tumor volume reached about 171 mm^3, the mice were randomized into groups and administered. The test compounds were orally administered daily, and the administration dosages were as shown in the above table. The tumor diameters were measured twice a week using a two-dimensional caliper. The tumor volumes were calculated by the following formula: V=0.5 a×b^2, wherein a and b were the long diameter and the short diameter of a tumor, respectively. The anti-tumor efficacy was determined by dividing the average increase of the tumor volumes of the animals treated with a compound by the average increase of the tumor volumes of the animals without being treated with the compound.

Chain of CDK6/cyclin D1 (Q00534 whole entry): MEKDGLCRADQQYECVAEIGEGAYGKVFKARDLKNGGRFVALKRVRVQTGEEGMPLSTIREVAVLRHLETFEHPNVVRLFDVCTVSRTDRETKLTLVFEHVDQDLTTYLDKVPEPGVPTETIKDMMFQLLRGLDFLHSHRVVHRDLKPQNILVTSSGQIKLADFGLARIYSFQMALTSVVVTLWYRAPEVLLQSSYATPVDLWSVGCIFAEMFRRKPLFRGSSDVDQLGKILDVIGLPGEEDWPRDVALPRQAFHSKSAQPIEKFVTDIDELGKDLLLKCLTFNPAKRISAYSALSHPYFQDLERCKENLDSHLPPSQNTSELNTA
Chain of CDK6/cyclin D1 (P24385 whole entry partner): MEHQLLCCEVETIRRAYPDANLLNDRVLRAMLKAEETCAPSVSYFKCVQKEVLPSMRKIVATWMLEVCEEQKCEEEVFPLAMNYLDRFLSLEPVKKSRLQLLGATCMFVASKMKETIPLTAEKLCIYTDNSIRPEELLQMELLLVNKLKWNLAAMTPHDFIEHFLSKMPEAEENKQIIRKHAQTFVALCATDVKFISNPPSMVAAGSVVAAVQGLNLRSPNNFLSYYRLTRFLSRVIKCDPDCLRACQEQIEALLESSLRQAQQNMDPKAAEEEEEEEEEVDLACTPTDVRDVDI

## CC(C)c1c2cc(-c3nc(Nc4ccc(N5CCNCC5)cn4)ncc3F)ccc2nn1C.O=C(O)/C=C\C(=O)O [A crystal form of compound WX_1]
CDK6/cyclin D1
  pIC50: > 9.10
[1]; Day 0
  Tumor volume Day 0: 153 mm^3
[1]; Day 7
  Tumor volume Day 7: 156 mm^3
[1]; Day 14
  Tumor volume Day 14: 136 mm^3
[1]; Day 20
  Tumor volume Day 20: 98 mm^3
[2]; Day 0
  Tumor volume Day 0: 171 ± 26 mm^3
[2]; Day 7
  Tumor volume Day 7: 172 ± 33 mm^3
[2]; Day 14
  Tumor volume Day 14: 150 ± 29 mm^3
[2]; Day 21
  Tumor volume Day 21: 175 ± 42 mm^3
